The values below are quoted from earlier work in patent publication US20250319028A1, “PHARMACEUTICAL FORMULATION COMPRISING TACROLIMUS, METHOD FOR THE PREPARATION THEREOF AND USE” (PHARMATHEN S.A., priority 2021, published 2025).

The structures appear in SMILES notation.

For data set [1] the following is noted: reported, patients.

Consider `C=CC[C@@H]1/C=C(\C)C[C@H](C)C[C@H](OC)[C@H]2O[C@@](O)(C(=O)C(=O)N3CCCC[C@H]3C(=O)O[C@H](/C(C)=C/[C@@H]3CC[C@@H](O)[C@H](OC)C3)[C@H](C)[C@@H](O)CC1=O)[C@H](C)C[C@@H]2OC` [Tacrolimus monohydrate], for which the Solubility in ethanol result (ethanol) was “freely soluble”. Moreover, the Solubility in heptane entry (heptane) is “practically insoluble”. Under “water”, the Solubility in water result is on record as “practically insoluble”.

On to `C=CC[C@@H]1/C=C(\C)C[C@H](C)C[C@H](OC)[C@H]2O[C@@](O)(C(=O)C(=O)N3CCCC[C@H]3C(=O)O[C@H](/C(C)=C/[C@@H]3CC[C@@H](O)[C@H](OC)C3)[C@H](C)[C@@H](O)CC1=O)[C@H](C)C[C@@H]2OC` [Tacrolimus], for which, in data set [1], the “Overall incidence of drug-induced nephrotoxicity” value was at most 44%.
